Assay results as given in patent US6355799B1, “Substituted benzene compounds, process for their preparation, and herbicidal and defoliant compositions containing them” (ISK Americas Incorporated, priority 1997, dated 2002).

Tests used:
Format in all cases: in vivo
[1] = system: redroot pigweed (Amaranthus retroflexus, AMARE); test: Pre-emerge test, greenhouse herbicide activity screening; details: phytotoxicity rating 0-100, 14 days after application
Procedure, shortened: (§1)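 Compounds in acetone were track-sprayed at 187 l/ha, 15–1000 g ai/ha, onto sandy loam pots. Pre-emerge seeds were sown one day before spraying, with surface watering afterwards. Post-emerge plants were at the 2–3 leaf stage and sprayed with 0.25% v/v non-ionic surfactant. Injury was rated 0–100 at 14 days.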

[2] = system: barnyardgrass (Echinochloa crus-galli, ECHCG); test: as above; details: phytotoxicity rating 0-100, 14 days after application
Procedure, shortened: as §1

[3] = system: large crabgrass (Digitaria sanguinalis, DIGSA); test: as above; details: phytotoxicity rating 0-100, 14 days after application
Procedure, shortened: as §1

[4] = system: green foxtail (Setaria viridis, SETVI); test: as above; details: phytotoxicity rating 0-100, 14 days after application
Procedure, shortened: as §1

[5] = system: johnsongrass (Sorghum halepense, SORHA); test: as above; details: phytotoxicity rating 0-100, 14 days after application
Procedure, shortened: as §1

[6] = system: velvetleaf (Abutilon theophrasti, ABUTH); test: as above; details: phytotoxicity rating 0-100, 14 days after application
Procedure, shortened: as §1

[7] = system: ivyleaf morningglory (Ipomoea hederacea, IPOHE); test: as above; details: phytotoxicity rating 0-100, 14 days after application
Procedure, shortened: as §1

[8] = system: sicklepod (Cassia obtusifolia, CASOB); test: as above; details: phytotoxicity rating 0-100, 14 days after application
Procedure, shortened: as §1

[9] = system: lambsquarters (Chenopodium album, CHEAL); test: as above; details: phytotoxicity rating 0-100, 14 days after application
Procedure, shortened: as §1

[10] = system: barnyardgrass (Echinochloa crus-galli, ECHCG); test: Post-emerge test, greenhouse herbicide activity screening; details: post-emerge, 14 days after application, rating scale 0-100
Procedure, shortened: (§2)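 Compounds in acetone were track-sprayed at 15-1000 g ai/ha (187 l/ha) on sandy loam pots: pre-emerge one day after seeding, post-emerge at 2-3 leaf stage with 0.25% v/v non-ionic surfactant. Phytotoxicity was rated 14 days later on a 0 (no damage) to 100 (complete death) scale.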

[11] = system: large crabgrass (Digitaria sanguinalis, DIGSA); test: as above; details: post-emerge, 14 days after application, rating scale 0-100
Procedure, shortened: as §2

[12] = system: green foxtail (Setaria viridis, SETVI); test: as above; details: post-emerge, 14 days after application, rating scale 0-100
Procedure, shortened: as §2

[13] = system: johnsongrass (Sorghum halepense, SORHA); test: as above; details: post-emerge, 14 days after application, rating scale 0-100
Procedure, shortened: as §2

[14] = system: velvetleaf (Abutilon theophrasti, ABUTH); test: as above; details: post-emerge, 14 days after application, rating scale 0-100
Procedure, shortened: as §2

[15] = system: redroot pigweed (Amaranthus retroflexus, AMARE); test: as above; details: post-emerge, 14 days after application
Procedure, shortened: as §2

[16] = system: ivyleaf morningglory (Ipomoea hederacea, IPOHE); test: as above; details: post-emerge, 14 days after application, rating scale 0-100
Procedure, shortened: as §2

[17] = system: sicklepod (Cassia obtusifolia, CASOB); test: as above; details: post-emerge, 14 days after application, rating scale 0-100
Procedure, shortened: as §2

[18] = system: lambsquarters (Chenopodium album, CHEAL); test: as above; details: post-emerge, 14 days after application, rating scale 0-100
Procedure, shortened: as §2

[19] = system: field corn (Zea mays L., var. Dekalb 535, CORN); test: Post-emerge test, crop safety; details: post-emerge, 14 days after application, rating scale 0-100
Procedure, shortened: as §1

[20] = system: upland rice (Oryza sp., var. Tebonnet, RICE); test: Post-emerge test, crop safety; details: post-emerge, 14 days after application, rating scale 0-100
Procedure, shortened: as §1

[21] = system: field corn (Zea mays L., var. Dekalb 535, CORN); test: Pre-emerge test, crop safety; details: crop damage rating 0-100, 14 days after application
Procedure, shortened: (§3)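 Herbicidal damage is scored 0 (none) to 100 (complete plant death) two weeks after a simulated field spray. Rates span 15–1000 g ai/ha, delivered in acetone at 187 l/ha. For post-emergence treatments, plants have 2–3 leaves and the spray carries 0.25% v/v non-ionic surfactant.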

[22] = system: upland rice (Oryza sp., var. Tebonnet, RICE); test: Pre-emerge test, crop safety; details: crop damage rating 0-100, 14 days after application
Procedure, shortened: as §3

COc1c(Cl)cc(F)c(-n2c(=O)cc(C(F)(F)F)n(C)c2=O)c1NC(=O)Nc1ccccc1 [Compound 3-4]
Pre-emerge Herbicidal Activity AMARE ([1]; 63 g ai/ha): 0 | Pre-emerge Herbicidal Activity AMARE ([1]; 250 g ai/ha): 100 | Pre-emerge Herbicidal Activity ECHCG ([2]; 63 g ai/ha): 0 | Pre-emerge Herbicidal Activity ECHCG ([2]; 250 g ai/ha): 0 | Pre-emerge Herbicidal Activity DIGSA ([3]; 63 g ai/ha): 0 | Pre-emerge Herbicidal Activity DIGSA ([3]; 250 g ai/ha): 10 | Pre-emerge Herbicidal Activity SETVI ([4]; 63 g ai/ha): 20 | Pre-emerge Herbicidal Activity SETVI ([4]; 250 g ai/ha): 60 | Pre-emerge Herbicidal Activity SORHA ([5]; 63 g ai/ha): 0 | Pre-emerge Herbicidal Activity SORHA ([5]; 250 g ai/ha): 10 | Pre-emerge Herbicidal Activity ABUTH ([6]; 63 g ai/ha): 0 | Pre-emerge Herbicidal Activity ABUTH ([6]; 250 g ai/ha): 100 | Pre-emerge Herbicidal Activity IPOHE ([7]; 63 g ai/ha): 0 | Pre-emerge Herbicidal Activity IPOHE ([7]; 250 g ai/ha): 50 | Pre-emerge Herbicidal Activity CASOB ([8]; 63 g ai/ha): 0 | Pre-emerge Herbicidal Activity CASOB ([8]; 250 g ai/ha): 60 | Pre-emerge Herbicidal Activity CHEAL ([9]; 63 g ai/ha): 0 | Pre-emerge Herbicidal Activity CHEAL ([9]; 250 g ai/ha): 100 | phytotoxicity rating ECHCG ([10]; 63 g ai/ha): 0 | phytotoxicity rating ECHCG ([10]; 250 g ai/ha): 0 | phytotoxicity rating DIGSA ([11]; 63 g ai/ha): 0 | phytotoxicity rating DIGSA ([11]; 250 g ai/ha): 0 | phytotoxicity rating SETVI ([12]; 63 g ai/ha): 0 | phytotoxicity rating SETVI ([12]; 250 g ai/ha): 0 | phytotoxicity rating SORHA ([13]; 63 g ai/ha): 0 | phytotoxicity rating SORHA ([13]; 250 g ai/ha): 0 | phytotoxicity rating ABUTH ([14]; 63 g ai/ha): 40 | phytotoxicity rating ABUTH ([14]; 250 g ai/ha): 50 | phytotoxicity rating AMARE ([15]; 63 g ai/ha, rating scale 0-100 (0 no damage, 100 complete death)): 0 | phytotoxicity rating AMARE ([15]; 250 g ai/ha, rating scale 0-100): 0 | phytotoxicity rating IPOHE ([16]; 63 g ai/ha): 0 | phytotoxicity rating IPOHE ([16]; 250 g ai/ha): 0 | phytotoxicity rating CASOB ([17]; 63 g ai/ha): 0 | phytotoxicity rating CASOB ([17]; 250 g ai/ha): 0 | phytotoxicity rating CHEAL ([18]; 63 g ai/ha): 0 | phytotoxicity rating CHEAL ([18]; 250 g ai/ha): 0 | phytotoxicity rating CORN (crop damage) ([19]; 63 g ai/ha): 0 | phytotoxicity rating CORN (crop damage) ([19]; 250 g ai/ha): 0 | phytotoxicity rating RICE (crop damage) ([20]; 63 g ai/ha): 0 | phytotoxicity rating RICE (crop damage) ([20]; 250 g ai/ha): 10 | Pre-emerge Herbicidal Activity CORN ([21]; 63 g ai/ha): 0 | Pre-emerge Herbicidal Activity CORN ([21]; 250 g ai/ha): 0 | Pre-emerge Herbicidal Activity RICE ([22]; 63 g ai/ha): 0 | Pre-emerge Herbicidal Activity RICE ([22]; 250 g ai/ha): 15
